Key:
[1] = molecular target: bovine serum albumin (BSA) (Bos taurus, UniProt P02769); experiment: equilibrium dialysis of albumin-phenytoin solution under focused ultrasound (FUS), HPLC of dialysate; format: in vitro ADME; conditions: for phenytoin level in dialysate: FUS 250 kHz, 55 ms TBD, 4 Hz PRF, 5 W/cm2 Isppa, 55 min; for elevation of unbound phenytoin level at the focus: p<0.05
Method: The ability of FUS to unbind phenytoin from albumin was assessed in this example by an equilibrium dialysis (ED), whereby the cocktail of albumin-phenytoin was sonicated, and unbound phenytoin was allowed to pass through the membrane to be collected and analyzed. As a part of in vitro testing, a visible dye, Toluidine Blue O, was dissolved in an aqueous solution of albumin and the spatial distribution of the degree of its unbinding from the albumin through the application of FUS was qualitatively evaluated via gel infiltration using agar gel block.
In this example, an in vitro experimental chamber was constructed using a 3D printer (clear resin) to measure the effects of FUS on albumin-phenytoin binding. The chamber includes four slots to place four microdialysis cassettes (7 kMW cut-off pore size; 4×4×0.8 cm; H×L×W) whereby one is placed perpendicular to the sonication focus (‘FF’), and three others are placed away from the focus (‘F01’ through ‘F03’). A FUS transducer having 13 mm focal length (away from the exit plane) and operating at a fundamental frequency of 250 kHz was used to sonicate the middle of the dialysis window (‘FF’). The output pressure wave from the transducer was calibrated for the input signal generator and the acoustic map perpendicular to the sonication axis was mapped using known methods. An identical setup was prepared separately and was not sonicated to provide a control.
In this example, bovine serum albumin (BSA) was dissolved in a phosphate-buffered saline (PBS) (pH7.4) at a concentration of 46 mg/mL concentration, and 200 mL of resulting solution was poured into the chamber. The experiment was conducted at a room temperature (20-21° C.) and the solution temperature was equilibrated at the ambient temperature. The solution was not degassed and kept the ambient gas content (O2 6.1 ppm; measured using dissolved oxygen meter). The wall of the chamber was padded with rubber inserts to absorb the incident acoustic waves to prevent reflection or reverberation within the chamber.
In this example, phenytoin was dissolved (15 μg/mL) in PBS having bovine serum albumin (BSA) concentration of 45 mg/mL to emulate the clinical serum concentration. The temperature of the solution was monitored during the sonication to examine the potential effect from the temperature of the solution on the bound phenytoin. The dialysis cassettes, after hydration according to known methods, were filled with PBS (0.5 ML) and were placed into the bath. Subsequently, sonication was given for 55 min at 250 kHz in pulsed manner (55 ms TBD, 4 Hz PRF, at 5 W/cm2 Isppa Spatial-Peak Pulse-Average Intensity, i.e. 22% duty cycle). The mechanical index (MI) of the focus was 0.8 (corresponding to peak negative pressure of 391 kPa). The temperature of the solution was monitored. […] The obtained samples underwent High Performance Liquid Chromatography (HPLC) for the measurement of phenytoin concentration after the calibration of the known absolute level of the phenytoin. The HPLC system consisted of an autosampler, a dual piston pump, and an electrochemical detector coupled to a guard cell and an analytical cell.

[2] = rat, in vivo
Method: In this example the effects of focused ultrasound (FUS) on unbinding phenytoin from albumin was evaluated in an animal model (rat). The enhancement of phenytoin was assessed using immunohistochemistry (IHC) followed by intraperitoneal injection of phenytoin and subsequent sonication of the unilateral hemisphere. All IHC was performed on an automated staining platform. Hematoxylin and eosin (H&E) staining was also performed to assess for tissue hemorrhage. The same sonication parameters and device were used as in the first example described above except the sonication was delivered for 35 minutes.
FUS was delivered to the brain areas in the right hemisphere at a fundamental frequency of 250 kHz in a pulsed manner (55 ms TBD, 4 Hz PRF, at 5 W/cm^2 Isppa) for 35 minutes. FIG. 4 illustrates example mosaic H&E microscope images 402, example, mosaic phenytoin-stained IHC images 404 and example inverted grayscale images 406 of the phenytoin IHC in accordance with an embodiment. […] In the IHC images 404, the dotted ovals 408 indicate the approximate location of the FUS sonication focus (in the right hemisphere of the brain).

[3] = tested on: plasma proteins, primarily albumin; conditions: cited from earlier work

Sequence of bovine serum albumin (BSA) (P02769 25-607): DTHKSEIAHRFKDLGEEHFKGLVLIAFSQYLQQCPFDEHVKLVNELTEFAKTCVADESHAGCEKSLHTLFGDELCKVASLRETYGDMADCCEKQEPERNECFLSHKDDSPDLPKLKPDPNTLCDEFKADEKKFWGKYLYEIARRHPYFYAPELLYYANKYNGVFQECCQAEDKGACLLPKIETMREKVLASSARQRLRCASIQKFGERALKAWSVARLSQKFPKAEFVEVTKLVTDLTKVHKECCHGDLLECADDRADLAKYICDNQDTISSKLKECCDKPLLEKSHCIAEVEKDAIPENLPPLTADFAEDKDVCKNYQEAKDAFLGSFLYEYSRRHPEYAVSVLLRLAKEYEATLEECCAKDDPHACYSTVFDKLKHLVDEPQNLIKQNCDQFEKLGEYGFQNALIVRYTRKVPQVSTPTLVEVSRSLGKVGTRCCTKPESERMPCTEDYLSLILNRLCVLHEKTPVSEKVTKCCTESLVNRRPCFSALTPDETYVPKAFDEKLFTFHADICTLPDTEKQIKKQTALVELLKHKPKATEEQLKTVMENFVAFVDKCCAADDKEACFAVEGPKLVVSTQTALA

Q: With `O=C1NC(=O)C(c2ccccc2)(c2ccccc2)N1` [phenytoin] as the compound, how does the “phenytoin level in dialysate” value ([1]; at the acoustic focus (FF), n=6) read?
A: 1.38 ± 0.2 µg/mL

Q: What about the “elevation of unbound phenytoin level at the focus” value ([1]; compared to outside of focus) of the same compound?
A: ~21.4%

Q: What about the “elevation of unbound phenytoin level at the focus” value ([1]; compared to the control) of the same compound?
A: approximately 27.7%

Q: And the “averaged phenytoin level in dialysate” value ([1]; control chamber (CTRL), not sonicated, n=12)?
A: 1.52 ± 0.16 µg/mL

Q: What about the “phenytoin level in dialysate” value ([1]; outside of focus (FO), n=12) of the same compound?
A: 1.13 ± 0.08 µg/mL

Q: And the “difference in phenytoin level between control condition and outside of focus” value ([1]; p>0.1)?
A: no significant difference

Q: And the “tissue injury or hemorrhage (H&E)” value [2]?
A: no evidence of tissue injury or hemorrhage

Q: And the “fraction available in an unbound state” value ([3]; at clinical dose)?
A: ~12%

Q: What about the “binding level to plasma proteins” value ([3]; primarily to albumin) of the same compound?
A: approximately 90%

Source: US12611459B2, “System and method for unbinding of plasma protein-bound active agents using an ultrasound system” (The Brigham and Women's Hospital, Inc., priority 2019, dated 2026)
